{"source": "patent US20260232767A1", "about": "“INTERLEUKIN-23 RECEPTOR ANTAGONIST PEPTIDES FOR USE IN THE TREATMENT OF PSORIASIS” (Janssen Pharmaceutica NV, priority 2023, published 2026)", "test_system": "subjects with moderate-to-severe plaque psoriasis", "test": "Safety, adverse events, Example 2 through Week 56", "type": "in vivo, human", "conditions": "Combined; through Week 56", "from_the_text": "The LTE safety analysis was based on randomized participants in Example who entered the present long-term extension study and received at least one dose of study intervention (including a partial dose) during the study period."}
{"smiles": "CC(=O)NCCCC[C@@H]1NC(=O)[C@H](Cc2c[nH]c3c(C)cccc23)NC(=O)[C@H]([C@@H](C)O)NC(=O)[C@H](CC(N)=O)NC(=O)[C@@H](NC(C)=O)C(C)(C)SSC(C)(C)[C@@H](C(=O)N[C@@H](Cc2ccc(OCCN)cc2)C(=O)N[C@@H](Cc2ccc3ccccc3c2)C(=O)NC2(C(=O)N[C@@H](CCC(=O)O)C(=O)N[C@@H](CC(N)=O)C(=O)N[C@@H](Cc3cccnc3)C(=O)N(C)CC(N)=O)CCOCC2)NC1=O", "note": "[IL-23 receptor antagonist peptide, Ac-[Pen]*-N-T-[W(7-Me)]-[Lys(Ac)]-[Pen]*-Phe[4-(2-aminoethoxy)]-[2-Nal]-[THP]-E-N-[3-Pal]-Sarc-NH2 (*[Pen]-[Pen]* formdisulfidebond)]", "values": [{"measurement": "Coronary artery disease: % of subjects", "result": "(0.4%)"}, {"measurement": "Coronary artery disease: number of subjects", "result": 1}, {"measurement": "Cough: % of subjects", "result": "(3.2%)"}, {"measurement": "Cough: number of subjects", "result": 8}, {"measurement": "Decreased appetite: % of subjects", "result": "(0.4%)"}, {"measurement": "Decreased appetite: number of subjects", "result": 1}, {"measurement": "Depression: % of subjects", "result": "(0.8%)"}, {"measurement": "Depression: number of subjects", "result": 2}, {"measurement": "Dermal cyst: % of subjects", "result": "(0.4%)"}, {"measurement": "Dermal cyst: number of subjects", "result": 1}, {"measurement": "Dermatitis acneiform: % of subjects", "result": "(0.4%)"}, {"measurement": "Dermatitis acneiform: number of subjects", "result": 1}, {"measurement": "Dermatitis contact: % of subjects", "result": "(1.6%)"}, {"measurement": "Dermatitis contact: number of subjects", "result": 4}, {"measurement": "Diabetes mellitus: % of subjects", "result": "(0.8%)"}, {"measurement": "Diabetes mellitus: number of subjects", "result": 2}, {"measurement": "Diffuse alopecia: % of subjects", "result": "(0.4%)"}, {"measurement": "Diffuse alopecia: number of subjects", "result": 1}, {"measurement": "Dysuria: % of subjects", "result": "(0.4%)"}, {"measurement": "Dysuria: number of subjects", "result": 1}, {"measurement": "Ear and labyrinth disorders: % of subjects", "result": "(1.2%)"}, {"measurement": "Ear and labyrinth disorders: number of subjects", "result": 3}, {"measurement": "Endocrine disorders: % of subjects", "result": "(0.4%)"}, {"measurement": "Endocrine disorders: number of subjects", "result": 1}, {"measurement": "Eye disorders: % of subjects", "result": "(1.2%)"}, {"measurement": "Eye disorders: number of subjects", "result": 3}, {"measurement": "Eyelid skin dryness: % of subjects", "result": "(0.4%)"}, {"measurement": "Eyelid skin dryness: number of subjects", "result": 1}, {"measurement": "Fatigue: % of subjects", "result": "(1.6%)"}, {"measurement": "Fatigue: number of subjects", "result": 4}, {"measurement": "General disorders and administration site conditions: % of subjects", "result": "(5.3%)"}, {"measurement": "General disorders and administration site conditions: number of subjects", "result": 13}, {"measurement": "Goiter: % of subjects", "result": "(0.4%)"}, {"measurement": "Goiter: number of subjects", "result": 1}, {"measurement": "Haemochromatosis: % of subjects", "result": "(0.4%)"}, {"measurement": "Haemochromatosis: number of subjects", "result": 1}, {"measurement": "Hand dermatitis: % of subjects", "result": "(0.4%)"}, {"measurement": "Hand dermatitis: number of subjects", "result": 1}, {"measurement": "Hematuria: % of subjects", "result": "(0.8%)"}, {"measurement": "Hematuria: number of subjects", "result": 2}, {"measurement": "Hepatobiliary disorders: % of subjects", "result": "(1.2%)"}, {"measurement": "Hepatobiliary disorders: number of subjects", "result": 3}, {"measurement": "Hypercholesterolemia: % of subjects", "result": "(0.4%)"}, {"measurement": "Hypercholesterolemia: number of subjects", "result": 1}, {"measurement": "Hyperglycemia: % of subjects", "result": "(1.6%)"}, {"measurement": "Hyperglycemia: number of subjects", "result": 4}, {"measurement": "Hyperlipidemia: % of subjects", "result": "(0.4%)"}, {"measurement": "Hyperlipidemia: number of subjects", "result": 1}, {"measurement": "Hypertension: % of subjects", "result": "(2.8%)"}, {"measurement": "Hypertension: number of subjects", "result": 7}, {"measurement": "Hypertransaminasemia: % of subjects", "result": "(0.4%)"}, {"measurement": "Hypertransaminasemia: number of subjects", "result": 1}, {"measurement": "Hypertriglyceridemia: % of subjects", "result": "(0.4%)"}, {"measurement": "Hypertriglyceridemia: number of subjects", "result": 1}, {"measurement": "Hypoacusis: % of subjects", "result": "(0.4%)"}, {"measurement": "Hypoacusis: number of subjects", "result": 1}, {"measurement": "Immune system disorders: % of subjects", "result": "(0.8%)"}, {"measurement": "Immune system disorders: number of subjects", "result": 2}, {"measurement": "Influenza like illness: % of subjects", "result": "(0.4%)"}, {"measurement": "Influenza like illness: number of subjects", "result": 1}, {"measurement": "Insomnia: % of subjects", "result": "(0.8%)"}, {"measurement": "Insomnia: number of subjects", "result": 2}, {"measurement": "Intertrigo: % of subjects", "result": "(0.4%)"}, {"measurement": "Intertrigo: number of subjects", "result": 1}, {"measurement": "Ketonuria: % of subjects", "result": "(0.4%)"}, {"measurement": "Ketonuria: number of subjects", "result": 1}, {"measurement": "Leukocyturia: % of subjects", "result": "(0.4%)"}, {"measurement": "Leukocyturia: number of subjects", "result": 1}, {"measurement": "Leukopenia: % of subjects", "result": "(0.4%)"}, {"measurement": "Leukopenia: number of subjects", "result": 1}, {"measurement": "Libido decreased: % of subjects", "result": "(0.4%)"}, {"measurement": "Libido decreased: number of subjects", "result": 1}, {"measurement": "Liver disorder: number of subjects", "result": 0}, {"measurement": "Lymphopenia: % of subjects", "result": "(0.8%)"}, {"measurement": "Lymphopenia: number of subjects", "result": 2}, {"measurement": "Menopause: % of subjects", "result": "(0.4%)"}, {"measurement": "Menopause: number of subjects", "result": 1}, {"measurement": "Metabolism and nutrition disorders: % of subjects", "result": "(4.5%)"}, {"measurement": "Metabolism and nutrition disorders: number of subjects", "result": 11}, {"measurement": "Neoplasms benign, malignant and unspecified (incl cysts and polyps): % of subjects", "result": "(2.4%)"}, {"measurement": "Neoplasms benign, malignant and unspecified (incl cysts and polyps): number of subjects", "result": 6}, {"measurement": "Nephrolithiasis: % of subjects", "result": "(0.4%)"}, {"measurement": "Nephrolithiasis: number of subjects", "result": 1}, {"measurement": "Neutropenia: % of subjects", "result": "(0.8%)"}, {"measurement": "Neutropenia: number of subjects", "result": 2}, {"measurement": "Night sweats: % of subjects", "result": "(0.4%)"}, {"measurement": "Night sweats: number of subjects", "result": 1}, {"measurement": "Non-cardiac chest pain: % of subjects", "result": "(0.4%)"}, {"measurement": "Non-cardiac chest pain: number of subjects", "result": 1}, {"measurement": "Ocular cyst: % of subjects", "result": "(0.4%)"}, {"measurement": "Ocular cyst: number of subjects", "result": 1}, {"measurement": "Oedema peripheral: % of subjects", "result": "(1.6%)"}, {"measurement": "Oedema peripheral: number of subjects", "result": 4}, {"measurement": "Oropharyngeal pain: % of subjects", "result": "(0.8%)"}, {"measurement": "Oropharyngeal pain: number of subjects", "result": 2}, {"measurement": "Procedural pain: % of subjects", "result": "(0.4%)"}, {"measurement": "Procedural pain: number of subjects", "result": 1}, {"measurement": "Productive cough: % of subjects", "result": "(0.4%)"}, {"measurement": "Productive cough: number of subjects", "result": 1}, {"measurement": "Proteinuria: % of subjects", "result": "(0.4%)"}, {"measurement": "Proteinuria: number of subjects", "result": 1}, {"measurement": "Pruritus: % of subjects", "result": "(0.8%)"}, {"measurement": "Pruritus: number of subjects", "result": 2}, {"measurement": "Psoriasis: % of subjects", "result": "(1.2%)"}, {"measurement": "Psoriasis: number of subjects", "result": 3}, {"measurement": "Psychiatric disorders: % of subjects", "result": "(2.0%)"}, {"measurement": "Psychiatric disorders: number of subjects", "result": 5}, {"measurement": "Pyrexia: % of subjects", "result": "(0.8%)"}, {"measurement": "Pyrexia: number of subjects", "result": 2}, {"measurement": "Rash pruritic: number of subjects", "result": 0}, {"measurement": "Renal and urinary disorders: % of subjects", "result": "(3.2%)"}, {"measurement": "Renal and urinary disorders: number of subjects", "result": 8}, {"measurement": "Renal mass: % of subjects", "result": "(0.4%)"}, {"measurement": "Renal mass: number of subjects", "result": 1}, {"measurement": "Respiratory, thoracic and mediastinal disorders: % of subjects", "result": "(5.3%)"}, {"measurement": "Respiratory, thoracic and mediastinal disorders: number of subjects", "result": 13}, {"measurement": "Retinal vein occlusion: % of subjects", "result": "(0.4%)"}, {"measurement": "Retinal vein occlusion: number of subjects", "result": 1}, {"measurement": "Rhinorrhoea: % of subjects", "result": "(0.4%)"}, {"measurement": "Rhinorrhoea: number of subjects", "result": 1}, {"measurement": "Seasonal allergy: % of subjects", "result": "(0.8%)"}]}
